Data reported in patent US10174011B2, “Heterocyclic compounds, process for preparation of the same and use thereof” (SHANGHAI INSTITUTE OF MATERIA MEDICA, CHINESE ACADEMY OF …, priority 2014, dated 2019).
Where two headings read alike, the source gives them in different places.

Tests used:
[1] = tested on: PCP-induced hyperactivity in mice; test: In vivo efficacy test (PCP-induced high locomotor activity in mice); conditions: male ICR mice, oral administration 45 minutes before PCP 7 mg/kg i.p.; dose significantly reducing PCP-induced hyperactivity vs model group
Description: 5) In Vivo Efficacy Test (PCP-Induced High Locomotor Activity in Mice)
PCP solution was prepared in a suitable concentration for 7 mg/kg dosage with saline. […] Male ICR mice (18-22 g) were used as test animals. All the test mice were randomly divided into vehicle control group, model control group, positive control group, and treatment group(8 mice per group). Mice of each group were orally administered test compounds or vehicle. After 45 minutes PCP solution was administered (7 mg/kg) through intraperitoneal injection. The mice track after drug or saline administration was recorded and analyzed by the spontaneous, open-field video analysis system. […] The mice track was recorded and analyzed by the spontaneous, open-field video analysis system. The total distance in each group was calculate and expressed as mean+SD and statistical evaluation was performed by one way ANOVA.

[2] = biological target: human recombinant 5-HT2A receptor (Homo sapiens (Human), UniProt P28223); test: 5-HT2A receptor antagonism activity test (FLIPR Calcium 5 Assay Kit); conditions: read-out: 5-HT2A receptor antagonism (IC50, mol/L)
human recombinant 5-HT2A receptor, sequence (P28223 whole entry): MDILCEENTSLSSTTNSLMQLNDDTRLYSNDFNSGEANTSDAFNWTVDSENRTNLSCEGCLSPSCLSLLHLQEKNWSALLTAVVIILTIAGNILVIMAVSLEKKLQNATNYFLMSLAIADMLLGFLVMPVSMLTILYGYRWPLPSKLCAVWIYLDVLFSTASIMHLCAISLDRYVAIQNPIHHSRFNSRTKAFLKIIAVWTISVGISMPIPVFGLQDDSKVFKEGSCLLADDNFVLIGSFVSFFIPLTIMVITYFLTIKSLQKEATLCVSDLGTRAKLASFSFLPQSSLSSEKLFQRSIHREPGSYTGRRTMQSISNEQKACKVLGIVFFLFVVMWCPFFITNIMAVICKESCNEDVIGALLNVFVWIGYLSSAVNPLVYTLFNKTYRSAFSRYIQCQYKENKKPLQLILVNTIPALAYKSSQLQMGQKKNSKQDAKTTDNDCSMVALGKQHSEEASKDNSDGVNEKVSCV

[3] = biological target: human recombinant 5-HT1A receptor (Homo sapiens (Human), UniProt P08908); test: 5-HT1A receptor agonism activity test (inhibition of cAMP production, LANCE cAMP 384 Kit); type: cell-based; conditions: HEK293 cells expressing human recombinant 5-HT1A receptor; test concentration 0.1 nM-10000 nM; read-out: 5-HT1A receptor agonism (EC50, mol/L)
human recombinant 5-HT1A receptor, sequence (P08908 whole entry): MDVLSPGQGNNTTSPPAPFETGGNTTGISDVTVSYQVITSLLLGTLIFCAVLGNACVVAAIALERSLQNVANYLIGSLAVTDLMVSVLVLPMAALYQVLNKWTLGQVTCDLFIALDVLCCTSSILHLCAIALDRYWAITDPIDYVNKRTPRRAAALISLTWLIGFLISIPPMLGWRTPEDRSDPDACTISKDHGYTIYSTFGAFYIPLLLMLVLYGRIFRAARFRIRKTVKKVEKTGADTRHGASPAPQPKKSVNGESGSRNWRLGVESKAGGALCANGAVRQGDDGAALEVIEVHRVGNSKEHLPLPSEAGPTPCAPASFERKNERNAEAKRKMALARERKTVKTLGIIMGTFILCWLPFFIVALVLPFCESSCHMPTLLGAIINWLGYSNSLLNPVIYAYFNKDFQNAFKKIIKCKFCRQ
Excerpt: Pharmacological Test 1) 5-HT1A Receptor Agonism Activity Test

[4] = biological target: human recombinant D2 receptor (Homo sapiens (Human), UniProt P14416); test: D2 receptor antagonism activity test (inhibition of dopamine-induced decrease of cAMP production, LANCE cAMP 384 Kit); conditions: read-out: D2 receptor antagonism (IC50, mol/L), HEK293 cells expressing human recombinant D2 receptor, 0.1 nM-10000 nM
human recombinant D2 receptor, sequence (P14416 whole entry): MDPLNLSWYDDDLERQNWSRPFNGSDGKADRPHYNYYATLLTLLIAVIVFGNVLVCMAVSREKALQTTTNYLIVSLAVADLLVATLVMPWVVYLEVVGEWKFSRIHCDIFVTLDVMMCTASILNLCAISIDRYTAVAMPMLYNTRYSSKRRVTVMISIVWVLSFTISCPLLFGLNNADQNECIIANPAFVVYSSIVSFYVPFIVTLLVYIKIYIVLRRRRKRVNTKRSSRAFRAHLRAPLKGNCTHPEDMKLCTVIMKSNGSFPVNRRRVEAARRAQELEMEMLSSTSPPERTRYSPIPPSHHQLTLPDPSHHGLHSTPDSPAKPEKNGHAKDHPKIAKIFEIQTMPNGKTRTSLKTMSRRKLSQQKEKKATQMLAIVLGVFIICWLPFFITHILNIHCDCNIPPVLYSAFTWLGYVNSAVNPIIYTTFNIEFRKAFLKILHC

[5] = CHO-K1 cells expressing human recombinant 5-HT2A receptor, α-methyl-5-hydroxytryptamine 300 nM, 0.1 nM-10000 nM

| SMILES | Effective dose [1] [mg/kg] | IC50 [2, 5] [nM] | EC50 [3] [nM] | IC50 [4] [nM] | IC50 [2] [nM] |
| --- | --- | --- | --- | --- | --- |
| O=C1Cc2cc(CCN3CCN(c4cccc5sccc45)CC3)ccc2N1 [Compound of example 8, 5-(2-(4-(benzo[b]thiophen-4-yl)piperazin-1-yl)ethyl)indolin-2-one] | 0.1 to 0.3 | – | – | – | – |
| Cl.O=C1Cc2cc(CCN3CCN(c4cccc5sccc45)CC3)c(Cl)cc2N1 [Compound of example 15, 5-(2-(4-(benzo[b]thiophen-4-yl)piperazin-1-yl)ethyl)-6-chloroindolin-2-one hydrochloride] | 0.1 to 1 | – | – | – | – |
| O=C1CCc2ccc(CCN3CCN(c4cccc5sccc45)CC3)cc2N1 [Compound of example 19, 7-(2-(4-(benzo[b]thiophen-4-yl)piperazin-1-yl)ethyl)-3,4-dihydroquinolin-2(1H)-one] | 0.1 | 169 | 0.926 | 8.62 | – |
| O=c1[nH]c2ccc(CCN3CCN(c4cccc5sccc45)CC3)cc2[nH]1 [Compound of example 27, 5-(2-(4-(benzo[b]thiophen-4-yl)piperazin-1-yl)ethyl)-1H-benzo[d]imidazol-2(3H)-one] | 0.3 | – | – | – | – |
| Cl.O=c1[nH]c2ccc(CCN3CCN(c4cccc5sccc45)CC3)cc2s1 [Compound of example 29, 6-(2-(4-(benzo[b]thiophen-4-yl)piperazin-1-yl)ethyl)benzo[d]thiazol-2(3H)-one hydrochloride] | 0.3 | – | – | – | – |
| Cl.O=C1COc2ccc(CCN3CCN(c4cccc5sccc45)CC3)cc2N1 [Compound of example 30, 6-(2-(4-(benzo[b]thiophen-4-yl)piperazin-1-yl)ethyl)-2H-benzo[b][1,4]oxazin-3(4H)-one hydrochloride] | 0.3 | – | – | 34.2 | 42.1 |
| O=C1CSc2ccc(CCN3CCN(c4cccc5sccc45)CC3)cc2N1 [Compound of example 31, 6-(2-(4-(benzo[b]thiophen-4-yl)piperazin-1-yl)ethyl)-2H-benzo[b][1,4]thiazin-3(4H)-one] | 1 | 52.2 | 0.68 | 92.7 | – |
| O=c1ccc2ccc(CCCCN3CCN(c4cccc5sccc45)CC3)cc2[nH]1 [Compound of example 33, 7-(4-(4-(benzo[b]thiophen-4-yl)piperazin-1-yl)butyl)quinolin-2(1H)-one] | 1 | 244 | 2.24 | 35.6 | – |
| c1ccc2c(CCN3CCN(c4cccc5sccc45)CC3)c[nH]c2c1 [Compound of example 46, 3-(2-(4-(benzo[b]thiophen-4-yl)piperazin-1-yl)ethyl)-1H-indole] | 1 | – | – | – | – |
| Cl.O=C1CCc2cc(CCN3CCN(c4cccc5sccc45)CC3)ccc2N1 [Compound of example 47, 6-(2-(4-(benzo[b]thiophen-4-yl)piperazin-1-yl)ethyl)-3,4-dihydroquinolin-2(1H)-one hydrochloride] | 0.3 | – | – | – | – |
| Cl.O=C1CCCc2cc(CCN3CCN(c4cccc5sccc45)CC3)ccc2N1 [Compound of example 49, 7-(2-(4-(benzo[b]thiophen-4-yl)piperazin-1-yl)ethyl)-4,5-dihydro-1H-benzo[b]azepin-2(3H)-one hydrochloride] | 1 | – | – | – | – |
| CN1Cc2cc(CCN3CCN(c4cccc5sccc45)CC3)ccc2NC1=O [Compound of example 51, 6-(2-(4-(benzo[b]thiophen-4-yl)piperazin-1-yl)ethyl)-3-methyl-3,4-dihydroquinazolin-2(1H)-one] | 1 | – | – | – | – |
| Cl.O=c1ccc2ccc(CCN3CCN(c4cccc5sc(F)cc45)CC3)cc2[nH]1 [Compound of example 57, 7-(2-(4-(2-fluorobenzo[b]thiophen-4-yl)piperazin-1-yl)ethyl)quinolin-2(1H)-one hydrochloride] | 1 | – | – | 8.4 | – |
| c1cc(N2CCN(CCc3ccc4ncsc4c3)CC2)c2ccsc2c1 [Compound of example 59, 6-(2-(4-(benzo[b]thiophen-4-yl)piperazin-1-yl)ethyl)benzo[d]thiazole] | 0.3 | – | – | – | – |
| Cl.O=C1CCc2ccc(CCN3CCN(c4cccc5sc(F)cc45)CC3)cc2N1 [Compound of example 64, 7-(2-(4-(2-fluorobenzo[b]thiophen-4-yl)piperazin-1-yl)ethyl)-3,4-dihydroquinolin-2(1H)-onehydrochloride] | 1 | 257 | 31.6 | 2.94 | – |
| O=C1CCc2cc(CCN3CCN(c4cccc5sc(F)cc45)CC3)ccc2N1 [Compound of example 65, 6-(2-(4-(2-fluorobenzo[b]thiophen-4-yl)piperazin-1-yl)ethyl)-3,4-dihydroquinolin-2(1H)-one] | 3 | 40.3 | 1.25 | 7.76 | – |
| O=c1[nH]c2ccc(CCN3CCN(c4cccc5sccc45)CC3)cc2o1 [Compound of example 68, 6-(2-(4-(benzo[b]thiophen-4-yl)piperazin-1-yl)ethyl)benzo[d]oxazol-2(3H)-one] | 0.3 | – | – | – | 4.82 |
| O=c1ccc2ccc(CCCCCN3CCN(c4cc(F)cc5sccc45)CC3)cc2[nH]1 [Compound of example 71, 7-(5-(4-(6-fluorobenzo[b]thiophen-4-yl)piperazin-1-yl)pentyl)quinolin-2(1H)-one] | 3 | – | – | – | – |
| O=C1COc2c(F)cc(CCCCN3CCN(c4cccc5sccc45)CC3)cc2N1 [Compound of example 72, 6-(4-(4-(benzo[b]thiophen-4-yl)piperazin-1-yl)butyl)-8-fluoro-2H-benzo[b][1,4]oxazin-3(4H)-one] | 3 | 951 | 2.53 | 13.2 | – |
| O=C1CCc2cc(CCCCN3CCN(c4cccc5sc(F)cc45)CC3)ccc2N1 [Compound of example 74, 6-(4-(4-(2-fluorobenzo[b]thiophen-4-yl)piperazin-1-yl)butyl)-3,4-dihydroquinolin-2(1H)-one] | 3 | 874 | 20.8 | 1.06 | – |
| O=c1[nH]c2ccc(CCN3CCN(c4cccc5sc(F)cc45)CC3)cc2[nH]1 [Compound of example 77, 5-(2-(4-(2-fluorobenzo[b]thiophen-4-yl)piperazin-1-yl)ethyl)-1H-benzo[d]imidazol-2(3H)-one] | 3 | 157 | 4.8 | 6.91 | – |
| O=C1COc2ccc(CCN3CCN(c4cc(F)cc5sccc45)CC3)cc2N1 [Compound of example 78, 6-(2-(4-(6-fluorobenzo[b]thiophen-4-yl)piperazin-1-yl)ethyl)-2H-benzo[b][1,4]oxazin-3(4H)-one] | 3 | 328 | 0.599 | 45.6 | – |
| O=C1Cc2cc(CCN3CCN(c4cccc5sc(F)cc45)CC3)ccc2N1 [Compound of example 79, 5-(2-(4-(2-fluorobenzo[b]thiophen-4-yl)piperazin-1-yl)ethyl)indolin-2-one] | 1 | – | 0.77 | 3.87 | 16.8 |
| Cl.Cn1c(=O)n(C)c2cc(CCN3CCN(c4cccc5sccc45)CC3)ccc21 [Compound of example 87, 5-(2-(4-(benzo[b]thiophen-4-yl)piperazin-1-yl)ethyl)-1,3-dimethyl-1H-benzo[d]imidazol-2(3H)-one hydrochloride] | 1 | 88 | 4.5 | – | – |
| CC(=O)N1CC(CCN2CCN(c3cccc4sccc34)CC2)c2ccccc21.Cl (stereo not shown) [Compound of example 124, 1-(3-(2-(4-(benzo[b]thiophen-4-yl)piperazin-1-yl)ethyl)indolin-1-yl)ethanone hydrochloride] | 3 | – | – | – | – |
| Cc1nc2n(c(=O)c1CCN1CCN(c3cccc4sc(F)cc34)CC1)CCCC2O.Cl (stereo not shown) [Compound of example 131, 3-(2-(4-(2-fluorobenzo[b]thiophen-4-yl)piperazin-1-yl)ethyl)-9-hydroxy-2-methyl-6,7,8,9-tetrahydro-4H-pyrido[1,2-a]pyrimidin-4-one hydrochloride] | 3 | – | 26 | – | 51.3 |
| Cl.S=C1CCc2ccc(CCN3CCN(c4cccc5sccc45)CC3)cc2N1 [Compound of example 133, 7-(2-(4-(benzo[b]thiophen-4-yl)piperazin-1-yl)ethyl)-3,4-dihydroquinoline-2(1H)-thione hydrochloride] | 1 | – | – | 10.9 | – |
| O=C1CCc2ccc(OCCCCN3CCN(c4cccc(Cl)c4Cl)CC3)cc2N1 [aripiprazole, reference compound] | 3 | – | – | – | – |
